Source: patent US12258425B2, “Peptide compositions and methods of use” (priority 2015, dated 2025)
Where a SMILES comes first, the peptide text is derived from it.

How the values were obtained:
[1] = pH-solubility titration (visual: precipitate, turbidity, viscosity, gel); type: physicochemical
Description: Compound 1 obtained as a trihydrochloride salt, as described in Example 1, and was screened for aqueous solubility at different pHs, by carrying out pH titrations according to the following protocol. In some cases Met-12 was run through an identical experimental procedure to determine its solubility pH profile under the same conditions.
Compound 1 (10 mg) was dissolved in water (270-900 ? L) in a 2 mL clear plastic centrifuge tube with vortexing to give a pH ˜2.4 solution. […] This solution was then diluted with the appropriate amount of cosolvent or other excipient (sugar, surfactant etc.) to produce a clear acidic solution of 10 mg of Compound 1 in […] of the test solution at room temperature ([…]). Small aliquots of a basic solution (usually sodium hydroxide 1.0 M or 0.1 M, but sometimes other bases when investigating buffers) were added using a microliter syringe. Between additions the solution was mixed by vortexing, and the solution was inspected visually for precipitates of various types, turbidity, as a likely sign of microprecipitates, and viscosity to detect gel formation. pH measurements were taken at all these observation points. Some experiments titrated from the endogenous low pH to pH 10, but later titrations were not carried much above pH 7, or sometimes even lower.

[2] = rabbit, in vivo
Description: (§1) This study was conducted to determine the concentrations of Compound 1 in vitreous humor (VH) and retina tissue following intravitreal injections of male Dutch Belted rabbits. Concentrations were determined in tissues at 24, 72, 168, and 240 hours post-dose of a 50 μL bilateral intravitreal (IVT) dose.
(§2) Test system included the following: • Species/Strain/Gender: Male Dutch Belted Rabbits • Supplier: Covance Research Products, Inc. • Age Range: 4 to 5 months • Weight at Receipt (Range of • Weights): 1.51-1.85 kg • Administration Route: Intravitreal (IVT) injection • Duration of Treatment: Single Dose per eye • Formulation Concentrations: 2.0, 1.0, and 0.5 mg/mL Compound 1 triacetate • Dose Volume: 50 μL per eye
(§3) An intravitreal (IVT) injection ocular dose of 50 μL was administered to the globe of each of Dutch Belted rabbit eye.
(§4) At the respective time points the rabbits were euthanized by intravenous barbiturate overdose, and eyes were enucleated and snap frozen. Vitreous humor and retina were collected from all animals and analyzed for Compound 1 by LC-MS/MS

[3] = rat, in vivo
Description: (§5) Concentrations were determined in tissues at 24 (Group 1), and 72 hours (Groups 1 and 2) post-dose of a 5 μL bilateral intravitreal (IVT) dose.
(§6) Test system included the following: • Species/Strain/Gender: Norway Brown Rats • Supplier: Charles River, Inc. • Age Range: 1 to 2 months • Weight at Receipt (Range of • Weights): 165.9-181.2 g • Administration Route: Intravitreal (IVT) injection • Duration of Treatment: Single dose per eye • Formulation Concentrations: 0.06 mg/mL ONL-1204 triacetate • Dose Volume: 5 μL per eye Harvesting of Ocular Tissues
(§7) Rats were euthanized by intravenous barbiturate overdose, and eyes were enucleated and snap frozen. Vitreous humor (VH) and retina were collected from all animals and analyzed for Compound 1 by LC-MS/MS.
(§8) For each VH unknown or control blank: Weigh VH into a homogenization tube. Add 4 times the VH weight (mg) of ACN:water:1 M hydrochloric acid (70:20:10, v/v/v) (μL) to the homogenization tube. Add zirconium oxide beads, 2.8 and 1.4 mm size. Homogenize all samples on Precellys®: 5500 rpm, 3×30 second cycles, and 20 seconds between cycles, at a temperature between −10 to 0° C.
(§9) For each retina unknown or control blank: • Weigh retina tissue into a homogenization tube. • Add 4 times the tissue weight (mg) of ACN:water:1 M hydrochloric acid (70:20:10, v/v/v) (μL) to the homogenization tube. • Add zirconium oxide beads, 1.4 mm size. • Homogenize all samples on Precellys®: 5500 rpm, 3×30 second cycles, and 20 seconds between cycles, at a temperature between −10 to 0° C. Preparation of Standards, Samples, and Blanks Preparation of Calibration Stock and Working Standards
(§10) One hundred (100) μL of each vitreous humor sample with ACN: formic acid (1000:1, v/v) was then aliquoted. One hundred (100) μL of DMSO:water:formic acid (50:40:10) was added to each vitreous humor sample. The samples were vortex mixed then centrifuged for 10 minutes at 14,000 rpm (4° C.). To 50.0 μL supernatant, 100 μL of working internal standard (50,000 ng/mL APi1887 in water) (water for the blank without internal standard), and 150 μL of water were added. The samples were then vortex mixed and transferred to an autosampler plate for analysis.
(§11) In a polypropylene tube, 50 μL of Brown Norway rat unknown homogenate, bovine control blank or calibration standard Bovine homogenate was added. Fifty (50) μL of DMSO:water:formic acid (50:40:10) was added to each sample. The samples were then vortex mixed and centrifuged for 10 minutes at 14,000 rpm (4° C.). Eighty (80) μL of each sample supernatant was then aliquoted to a 96-well autosampler plate. Forty (40) μL of working internal standard (5,000 ng/mL APi1887 in water) (water for the blank without internal standard), and 120 μL of water were added. The samples were then mixed with a multichannel pipette and analyzed.

in vivo [4] = conditions: male, Dutch Belted, rabbit
Description: as §1, §2, §3, §4

in vivo [5] = conditions: Brown Norway, rat, 0.3 ug/eye, Mean concentration in rat retina
Description: as §5, §6, §7, §8, §9, §10, §11

[6] = Rabbit intravitreal ocular pharmacokinetic study (vitreous humor and retina); conditions: IVT in Poloxamer or Polysorbate formulations, 10 day course
Description: as §1, §2, §3, §4

[7] = 0.025 mg/eye, Calculated Concentration in vitreous humor
[8] = 0.05 mg/eye, Calculated Concentration in retina
[9] = 0.05 mg/eye, Calculated Concentration in vitreous humor
[10] = 0.05 mg/eye, Mean concentration in retina
[11] = 0.1 mg/eye, Calculated Concentration in retina
[12] = 0.1 mg/eye, Calculated Concentration in vitreous humor
[13] = 0.1 mg/eye, Mean concentration in retina

CC[C@H](C)[C@H](NC(=O)[C@H](Cc1ccc(O)cc1)NC(=O)[C@H](CC(N)=O)NC(=O)[C@@H](NC(=O)[C@H](C)NC(=O)CNC(=O)[C@H](CC(C)C)NC(=O)[C@H](Cc1ccc(O)cc1)NC(=O)[C@@H](NC(=O)[C@H](Cc1cnc[nH]1)NC(=O)[C@@H](N)Cc1cnc[nH]1)[C@@H](C)CC)C(C)C)C(=O)N[C@@H](Cc1ccc(O)cc1)C(N)=O [Compound 1, His-His-Ile-Tyr-Leu-Gly-Ala-Val-Asn-Tyr-Ile-Tyr-NHz] (H-HHIYLGAVNYIY-NH2)
Aqueous solubility (in words) [1]: poor aqueous solubility above pH˜3 | Behaviour on standing overnight [1]: the solution gelled, and the pH dropped by about 0.2 units | solubility ([1]; pH 2.4): ≥ 40 mg/mL | Terminal t1/2 in Retina ([2]; male, Dutch Belted): 199 h | Mean concentration in retina ([2]; male, Dutch Belted, 0.025 mg/eye, 168 h): 1440 ng/g | VH AUC0-last of Group 1 (2 mg/mL) relative to Groups 2 and 3 (0.5 mg/mL) [2]: approximate four times greater AUC | Clearance from VH in the first 24 hours [3]: about half the drug cleared the VH | Terminal half-life in VH [3]: on the order of several days | level at 24 h (in vivo [4]; [7]): 22 µg/mL | level at 168 h (in vivo [4]; [7]): 22.3 µg/mL | level at 240 h (in vivo [4]; [7]): 18 µg/mL | tissue level at time at 168 h (in vivo [4]; 0.025 mg/eye, Mean concentration in retina): 912 ng/g | tissue level at time at 72 h (in vivo [4]; [8]): 172 ng/g | tissue level at time at 168 h (in vivo [4]; [8]): 204 ng/g | tissue level at time at 240 h (in vivo [4]; [8]): 109 ng/g | level at 24 h (in vivo [4]; [9]): 44 µg/mL | level at 72 h (in vivo [4]; [9]): 39.6 µg/mL | level at 168 h (in vivo [4]; [9]): 25.9 µg/mL | tissue level at time at 24 h (in vivo [4]; [10]): 206 ng/g | tissue level at time at 72 h (in vivo [4]; [10]): 95 ng/g | tissue level at time at 168 h (in vivo [4]; [10]): 51 ng/g | tissue level at time at 240 h (in vivo [4]; [10]): 27.3 ng/g | level at 240 h (in vivo [4]; [11]): 0.112 µg/mL | tissue level at time at 240 h (in vivo [4]; [11]): 559 ng/g | level at 24 h (in vivo [4]; [12]): 75.9 µg/mL | level at 72 h (in vivo [4]; [12]): 125 µg/mL | level at 168 h (in vivo [4]; [12]): 84.8 µg/mL | level at 240 h (in vivo [4]; [12]): 79.4 µg/mL | tissue level at time at 24 h (in vivo [4]; [13]): 596 ng/g | tissue level at time at 72 h (in vivo [4]; [13]): 1630 ng/g | tissue level at time at 168 h (in vivo [4]; [13]): 354 ng/g | tissue level at time at 240 h (in vivo [4]; [13]): 490 ng/g | half-life (in vivo [4]; Terminal t1/2 in Retina): 168 h | half-life (in vivo [4]; t1/2 in VH): > 900 h | tissue level at time at 24 h (in vivo [5]): 1210 ng/g | tissue level at time at 72 h (in vivo [5]): 570 ng/g | Irritation / tolerability [6]: no signs of irritation or tolerability issues
